Columns and labels:
[1] = Effective permeability of the compound at pH 6.5 after 2 hrs by PAMPA; type: ADME; conditions: read-out: Peff
D-amino-acid oxidase [2] = molecular target: T1, D-amino-acid oxidase (Homo sapiens, UniProt P14920); experiment: Inhibition of human recombinant DAAO after 30 mins by plate reader analysis
D-amino-acid oxidase [3] = molecular target: T1, D-amino-acid oxidase
Description: Inhibition of DAAO (unknown origin) by cell based assay

D-amino-acid oxidase [4] = molecular target: D-amino-acid oxidase (Rattus norvegicus, UniProt O35078)
Description: Inhibition of rat full length DAAO overexpressed in HEK293 cells after 30 mins by plate reader analysis

D-amino-acid oxidase [5] = molecular target: D-amino-acid oxidase (Mus musculus, UniProt P18894)
Sequence of D-amino-acid oxidase (Mus musculus, UniProt P18894) (P18894 whole entry): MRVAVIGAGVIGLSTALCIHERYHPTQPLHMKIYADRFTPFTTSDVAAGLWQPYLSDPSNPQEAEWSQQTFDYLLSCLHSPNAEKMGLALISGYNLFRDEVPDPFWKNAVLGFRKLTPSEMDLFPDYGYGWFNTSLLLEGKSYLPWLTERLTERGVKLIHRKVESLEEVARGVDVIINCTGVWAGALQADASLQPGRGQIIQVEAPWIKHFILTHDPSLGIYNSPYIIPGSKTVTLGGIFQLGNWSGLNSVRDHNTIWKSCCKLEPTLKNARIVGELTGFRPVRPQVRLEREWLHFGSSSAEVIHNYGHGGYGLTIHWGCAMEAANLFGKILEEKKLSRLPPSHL
Description: Inhibition of mouse full length DAAO overexpressed in HEK293 cells after 30 mins by plate reader analysis

D-amino-acid oxidase [6] = molecular target: T1, D-amino-acid oxidase; remark: listed apart in the source
Description: Inhibition of human full length DAAO overexpressed in HEK293 cells after 30 mins by plate reader analysis

HEK293 = experiment: Cytotoxicity against HEK293 cells overexpressing human full length DAAO by Alamar Blue assay; type: cell-based
[7] = Drug uptake in ddY mouse brain at 30 mg/kg, po after 30 mins by LC-MS/MS analysis; type: ADME, organism-based; set-up: dose 30 mg/kg, route oral; conditions: read-out: Drug uptake
[8] = Plasma concentration in ddY mouse at 30 mg/kg, po after 30 mins by LC-MS/MS analysis; type: ADME, organism-based; set-up: dose 30 mg/kg, route oral

Sequence of D-amino-acid oxidase (Rattus norvegicus, UniProt O35078) (O35078 whole entry): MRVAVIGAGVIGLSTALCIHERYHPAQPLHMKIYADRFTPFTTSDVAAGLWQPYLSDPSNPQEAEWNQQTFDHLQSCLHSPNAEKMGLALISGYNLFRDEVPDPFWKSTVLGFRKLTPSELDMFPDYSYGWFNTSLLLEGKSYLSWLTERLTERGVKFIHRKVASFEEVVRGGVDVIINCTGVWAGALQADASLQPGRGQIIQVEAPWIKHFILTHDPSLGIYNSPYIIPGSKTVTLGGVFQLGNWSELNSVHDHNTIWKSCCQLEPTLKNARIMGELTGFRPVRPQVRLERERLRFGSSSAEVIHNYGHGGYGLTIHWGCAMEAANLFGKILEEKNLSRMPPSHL
T1 sequence (P14920 whole entry): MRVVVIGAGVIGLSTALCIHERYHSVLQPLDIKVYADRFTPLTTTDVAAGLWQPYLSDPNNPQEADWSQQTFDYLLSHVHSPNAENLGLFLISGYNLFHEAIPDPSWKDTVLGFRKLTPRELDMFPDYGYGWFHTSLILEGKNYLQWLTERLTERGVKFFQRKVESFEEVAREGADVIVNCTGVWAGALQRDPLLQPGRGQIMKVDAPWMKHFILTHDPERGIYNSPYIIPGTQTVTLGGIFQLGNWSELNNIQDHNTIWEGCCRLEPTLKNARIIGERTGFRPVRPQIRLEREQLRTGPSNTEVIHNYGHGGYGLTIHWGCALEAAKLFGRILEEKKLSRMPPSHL

SMILES | IC50 (D-amino-acid oxidase [4]) [nM] | IC50 (D-amino-acid oxidase [5]) [nM] | also measured
O=c1[nH]cc(Cl)cc1O |  |  | Papp at 2 h [1]: 6.4 ×10⁻⁶ cm/s; IC50 (D-amino-acid oxidase [2]): 47 nM; IC50 (D-amino-acid oxidase [3]): 930 nM
O=c1[nH]nc(CCc2ccc(Cl)cc2)cc1O | 2.4 | 1.9 | 
O=c1[nH]nc(CCc2cccc(F)c2)cc1O | 2.6 | 1.9 | 
O=c1[nH]nc(CCCc2ccccc2)cc1O | 1220 | 426 | 
O=c1[nH]nc(CCc2ccccc2C(F)(F)F)cc1O | 41 | 7.1 | 
COc1cc(CCc2cc(O)c(=O)[nH]n2)cc(OC)c1 | 19 | 12 | 
O=c1[nH]nc(/C=C/c2ccc(Cl)cc2)cc1O | 470 | 240 | IC50 (D-amino-acid oxidase [2]): 120 nM; IC50 (D-amino-acid oxidase [6]): 570 nM
O=C(O)c1cc2sccc2[nH]1 |  |  | Papp at 2 h [1]: 0.8 ×10⁻⁶ cm/s; IC50 (D-amino-acid oxidase [2]): 1.4 nM; IC50 (D-amino-acid oxidase [3]): 147 nM
O=c1[nH]nc(CCc2ccccc2F)cc1O | 4.9 | 3.6 | 
O=c1cc(COc2ccccc2)[nH]nc1O | 6.5 | 4.6 | 
O=c1[nH]nc(CCC2CCCCC2)cc1O | 8.2 | 3.2 | 
O=c1[nH]nc(C2CCCCC2)cc1O | > 1000 | > 1000 | IC50 (D-amino-acid oxidase [2]): 300 nM; IC50 (D-amino-acid oxidase [6]): > 1000 nM
CC(C)(C)CCc1cc(O)c(=O)[nH]n1 | > 1000 | > 1000 | IC50 (D-amino-acid oxidase [2]): 670 nM; IC50 (D-amino-acid oxidase [6]): > 1000 nM
COc1cccc(CCc2cc(O)c(=O)[nH]n2)c1 | 5.6 | 4.4 | 
Cc1c[nH]c(=O)c(O)c1 |  |  | Activity (HEK293): Toxic; IC50 (D-amino-acid oxidase [2]): 140 nM
O=c1[nH]c2ccccc2cc1O |  |  | Papp at 2 h [1]: 18.2 ×10⁻⁶ cm/s
COc1ccc(CCc2cc(O)c(=O)[nH]n2)cc1 | 3.8 | 3.6 | 
O=c1[nH]nc(CCc2cc(C(F)(F)F)cc(C(F)(F)F)c2)cc1O | 1900 | 490 | 
O=c1[nH]cc(CCc2ccccc2)cc1O |  |  | Activity (HEK293): Toxic; Papp at 2 h [1]: > 30 ×10⁻⁶ cm/s
O=c1[nH]nc(CCc2cc(F)cc(F)c2)cc1O | 16 | 4.4 | concentration at 0.5 h [7]: 460 ng/mL; concentration at 0.5 h [8]: 6540 ng/mL
CC(c1ccccc1)c1cc(O)c(=O)[nH]n1 (stereo not drawn) | 3.1 | 2.8 | 
O=c1[nH]nc(CCc2ccc(F)cc2)cc1O | 2.2 | 2.5 | 
Oc1cccnc1O |  |  | IC50 (D-amino-acid oxidase [2]): 1150 nM
O=c1[nH]nc(CCc2ccc(C(F)(F)F)cc2)cc1O [LUVADAXISTAT] | 5 | 5.9 | 
O=c1[nH]nc(CCc2ccccc2)cc1O | 4.6 | 3.3 | 

Reference: ChEMBL document CHEMBL2331290, “4-Hydroxypyridazin-3(2H)-one derivatives as novel D-amino acid oxidase inhibitors” (J Med Chem, 2013)
